Laboratory results: patent US20260091031A1, “CGRP RECEPTOR ANTAGONISTS FOR TREATING CHEMOTHERAPY-INDUCED NAUSEA AND VOMITING (CINV)” (priority 2022, published 2026)

Columns and labels:
[1] = tested on: nausea induced by cisplatin or cyclophosphamide in the rat; assay: Gaping events as index of nausea induced by cisplatin or cyclophosphamide; type: in vivo; settings: 3 mg/kg oral 6 hrs before cisplatin (6 mg/kg i.p.) or cyclophosphamide (40 mg/kg i.p.), monitored for 4 hrs
Description: It is known that the induction of nausea by a chemical can be evaluated in rats measuring repetitive mouth opening (the so called “gaping”) (Autonomic Neuroscience, 2006, 129, 36-41). We have therefore evaluated the effects of rimegepant, ubrogepant, atogepant and zavegepant (3 mg/kg) on gaping prompted in rats by the anticancer drugs cisplatin (6 mg/kg, i.p.) or cyclophosphamide (40 mg/kg, i.p.). These drugs have been injected 6 hrs after the oral administration of the gepants to allow complete tissue drug absorption and distribution. Gaping was monitored for 4 hrs.
FIG. 2. Effects of gepants on nausea induced by cisplatin or cyclophosphamide in the rat. Rats (10 animals/group) received rimegepant, ubrogepant, atogepant and zavegepant orally (3 mg/kg) 6 hrs before an intraperitoneal injection of cisplatin (6 mg/kg) or cyclophosphamide (40 mg/kg). The number of gaping events were evaluated for 4 hrs as an index of nausea.

[2] = Accumulation of gepants in trigeminal ganglion and cerebral cortex after oral administration (LC/MS of tissue extracts); type: in vivo; settings: rat, 3 mg/kg oral, 6 hrs after administration, transcardially perfused 10 min
Description: Animals have been transcardially perfused with cold saline for 10 min in order to remove blood contamination and the possible presence of gepants present in plasma. Upon perfusion, tissue specimens form the cerebral cortex (a region beyond the blood brain barrier) and from the trigeminal ganglion (a region before the blood brain barrier) have been collected and extracted with 10 volumes (weight/volume) of a solution of water/acetonitrile (50%/50%). Tissue extracts have been injected in a LC/MS apparatus to reveal the possible presence of the orally-administered gepants.
FIG. 1. Evaluation of the ability of gepants to accumulate within the trigeminal ganglion and cerebral cortex upon oral administration in the rat. […] Animals have been transcardially perfused for 10 min to remove contamination by gepants present in plasma.

[3] = tested on: vomiting induced by cisplatin or cyclophosphamide in the shrew; assay: Vomiting events induced by cisplatin or cyclophosphamide; type: in vivo, shrew (Suncus Murinus); settings: 3 mg/kg oral 6 hrs before cisplatin (6 mg/kg i.p.) or cyclophosphamide (40 mg/kg i.p.), monitored for 4 hrs
Description: Specifically, we have evaluated the effects of the oral administration of rimegepant, ubrogepant, atogepant and zavegepant (3 mg/kg) on vomiting events induced in the shrew by cisplatin (6 mg/kg i.p.) or cyclophosphamide (40 mg/kg i.p.). To allow complete gepant absorption and tissue distribution, cisplatin and cyclophosphamide have been administered 6 hrs after the gepants and animals monitored for 4 hrs.
FIG. 3. Effects of gepants on vomiting induced by cisplatin or cyclophosphamide in the shrew. Shrews (10 animals/group) have been orally administered with rimegepant, ubrogepant, atogepant and zavegepant (3 mg/kg) 6 hrs before the intraperitoneal injection of cisplatin (6 mg/kg) or cyclophosphamide (40 mg/kg) and the number of vomiting events evaluated for 4 hrs.

Row | SMILES | number of gaping events (index of nausea) compared to controls [1] | presence in brain cortex extracts [2] | presence in trigeminal ganglion extracts [2] | number of vomiting events compared to controls [3]
1 | Cc1cc(C[C@@H](NC(=O)N2CCC(c3cc4ccccc4[nH]c3=O)CC2)C(=O)N2CCN(C3CCN(C)CC3)CC2)cc2cn[nH]c12 [zavegepant] | reduced number of gaping events | detectable | detectable | reduced number of vomiting events
2 | C[C@@H]1[C@H](c2c(F)ccc(F)c2F)C[C@H](NC(=O)c2cnc3c(c2)C[C@@]2(C3)C(=O)Nc3ncccc32)C(=O)N1CC(F)(F)F [atogepant] | reduced number of gaping events | detectable | detectable | reduced number of vomiting events
3 | N[C@@H]1c2cccnc2[C@H](OC(=O)N2CCC(n3c(=O)[nH]c4ncccc43)CC2)CC[C@H]1c1cccc(F)c1F [rimegepant] | reduced number of gaping events | detectable | detectable | reduced number of vomiting events
4 | C[C@@H]1[C@H](c2ccccc2)C[C@H](NC(=O)c2cnc3c(c2)C[C@@]2(C3)C(=O)Nc3ncccc32)C(=O)N1CC(F)(F)F [ubrogepant] | reduced number of gaping events | detectable | detectable | reduced number of vomiting events
